Target: T1, p300 (Homo sapiens, UniProt Q09472)
T1 construct: host or cells: A549 P300 HiBit cells
Assay: P300 degradation, HiBit technology in A549 P300 HiBit cells (2 h)
Type: cell-based
Details: 2 hrs post treatment; for Dmax: A549, A549 P300 HiBit cells; for DC50: A549 P300 HiBit cells
Summary of the method: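 Degradation potency and Dmax came from HiBiT luminescence in tagged A549 cells treated with serially diluted compound (DMSO stocks at 10 mM) after overnight equilibration in F-12K with 10% heat-inactivated FBS.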

T1 sequence (Q09472 whole entry): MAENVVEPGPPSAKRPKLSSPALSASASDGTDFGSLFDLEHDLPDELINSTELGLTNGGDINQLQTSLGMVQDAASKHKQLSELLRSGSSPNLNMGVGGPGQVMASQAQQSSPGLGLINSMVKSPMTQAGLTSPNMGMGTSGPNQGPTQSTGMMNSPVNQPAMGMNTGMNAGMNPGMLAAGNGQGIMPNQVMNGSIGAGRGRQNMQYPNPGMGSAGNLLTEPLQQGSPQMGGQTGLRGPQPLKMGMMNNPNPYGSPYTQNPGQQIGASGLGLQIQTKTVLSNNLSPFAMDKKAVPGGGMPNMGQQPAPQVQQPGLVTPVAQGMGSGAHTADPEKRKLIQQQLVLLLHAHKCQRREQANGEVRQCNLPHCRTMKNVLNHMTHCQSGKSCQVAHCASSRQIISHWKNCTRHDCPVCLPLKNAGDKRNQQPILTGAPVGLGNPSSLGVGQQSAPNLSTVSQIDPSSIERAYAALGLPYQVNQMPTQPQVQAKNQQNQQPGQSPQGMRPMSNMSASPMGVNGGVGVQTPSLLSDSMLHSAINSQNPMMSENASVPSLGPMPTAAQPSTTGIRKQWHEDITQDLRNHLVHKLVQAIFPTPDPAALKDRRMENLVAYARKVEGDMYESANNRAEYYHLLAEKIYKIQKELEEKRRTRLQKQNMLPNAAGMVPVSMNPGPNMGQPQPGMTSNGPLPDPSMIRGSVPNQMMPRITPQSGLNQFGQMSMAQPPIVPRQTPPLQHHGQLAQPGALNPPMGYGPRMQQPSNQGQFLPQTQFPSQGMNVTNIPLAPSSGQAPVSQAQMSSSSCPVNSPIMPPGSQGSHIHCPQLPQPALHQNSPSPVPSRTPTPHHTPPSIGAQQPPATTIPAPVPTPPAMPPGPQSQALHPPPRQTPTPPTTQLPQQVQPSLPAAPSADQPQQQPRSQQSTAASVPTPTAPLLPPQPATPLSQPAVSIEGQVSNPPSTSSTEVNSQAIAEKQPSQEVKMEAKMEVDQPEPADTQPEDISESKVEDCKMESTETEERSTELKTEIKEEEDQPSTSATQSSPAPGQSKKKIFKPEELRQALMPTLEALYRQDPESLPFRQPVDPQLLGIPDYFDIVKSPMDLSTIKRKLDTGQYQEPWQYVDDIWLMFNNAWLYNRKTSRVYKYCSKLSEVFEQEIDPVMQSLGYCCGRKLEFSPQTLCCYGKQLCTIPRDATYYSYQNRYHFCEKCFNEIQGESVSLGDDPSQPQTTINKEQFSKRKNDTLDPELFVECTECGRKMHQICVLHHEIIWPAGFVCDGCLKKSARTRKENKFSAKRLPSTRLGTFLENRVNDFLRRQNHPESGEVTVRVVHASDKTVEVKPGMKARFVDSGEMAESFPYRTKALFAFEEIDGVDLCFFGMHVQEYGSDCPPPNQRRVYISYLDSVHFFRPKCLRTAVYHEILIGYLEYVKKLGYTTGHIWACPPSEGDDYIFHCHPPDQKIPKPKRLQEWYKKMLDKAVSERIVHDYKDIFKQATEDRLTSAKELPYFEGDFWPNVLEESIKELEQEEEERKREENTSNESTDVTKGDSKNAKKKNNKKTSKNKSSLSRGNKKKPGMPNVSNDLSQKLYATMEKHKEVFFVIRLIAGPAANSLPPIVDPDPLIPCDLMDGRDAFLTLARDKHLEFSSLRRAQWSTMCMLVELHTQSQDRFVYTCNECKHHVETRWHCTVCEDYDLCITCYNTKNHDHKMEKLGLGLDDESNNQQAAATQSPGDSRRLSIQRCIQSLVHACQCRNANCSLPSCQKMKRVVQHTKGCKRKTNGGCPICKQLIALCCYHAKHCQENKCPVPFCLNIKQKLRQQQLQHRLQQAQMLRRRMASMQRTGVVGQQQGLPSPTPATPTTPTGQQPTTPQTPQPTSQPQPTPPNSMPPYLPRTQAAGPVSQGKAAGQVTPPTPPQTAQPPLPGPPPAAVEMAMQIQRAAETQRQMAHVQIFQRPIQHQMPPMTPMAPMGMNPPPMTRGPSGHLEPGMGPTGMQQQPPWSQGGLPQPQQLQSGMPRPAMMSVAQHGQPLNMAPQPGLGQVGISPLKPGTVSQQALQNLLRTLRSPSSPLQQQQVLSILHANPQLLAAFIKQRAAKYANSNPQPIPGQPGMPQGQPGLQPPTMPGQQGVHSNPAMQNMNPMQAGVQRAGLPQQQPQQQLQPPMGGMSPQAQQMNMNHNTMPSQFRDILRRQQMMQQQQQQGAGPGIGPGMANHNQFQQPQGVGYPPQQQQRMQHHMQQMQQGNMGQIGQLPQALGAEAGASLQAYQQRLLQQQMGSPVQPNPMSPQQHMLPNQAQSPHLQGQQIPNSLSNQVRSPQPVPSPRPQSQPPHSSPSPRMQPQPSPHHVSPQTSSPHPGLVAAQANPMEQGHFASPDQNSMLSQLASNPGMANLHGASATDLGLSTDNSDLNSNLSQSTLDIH

SMILES	Dmax	DC50
Cc1nc2c(N3CCCc4nc(-c5ccc(C(=O)NCC#Cc6ccc7occ(C8CCC(=O)NC8=O)c7c6)nc5)ncc43)cc(C3CCOCC3)cc2n(C)c1=O (centres unmarked) [Example B78, 5-(5-(1,3-dimethyl-2-oxo-7-(tetrahydro-2H-pyran-4-yl)-1,2-dihydroquinoxalin-5-yl)-5,6,7,8-tetrahydropyrido[3,2-d]pyrimidin-2-yl)-N-(3-(3-(2,6-dioxopiperidin-3-yl)benzofuran-5-yl)prop-2-yn-1-yl)picolinamide]	< 20%	> 1000 nM
Cc1cc(=O)n(C)c2cc(C3CCOCC3)cc(N3CCCc4nc(-c5ccc(C(=O)NCC#Cc6ccc7occ(C8CCC(=O)NC8=O)c7c6)nc5)ncc43)c12 (centres unmarked) [Example B80, 5-(5-(1,4-dimethyl-2-oxo-7-(tetrahydro-2H-pyran-4-yl)-1,2-dihydroquinolin-5-yl)-5,6,7,8-tetrahydropyrido[3,2-d]pyrimidin-2-yl)-N-(3-(3-(2,6-dioxopiperidin-3-yl)benzofuran-5-yl)prop-2-yn-1-yl)picolinamide]	< 20%	> 1000 nM
Cc1cc2c(N3CCCc4nc(-c5ccc(C(=O)NCC#Cc6ccc7occ(C8(C)CCC(=O)NC8=O)c7c6)nc5)ncc43)cc(C3CCOCC3)cc2n(C)c1=O (centres unmarked) [Example B85, 5-(5-(1,3-dimethyl-2-oxo-7-(tetrahydro-2H-pyran-4-yl)-1,2-dihydroquinolin-5-yl)-5,6,7,8-tetrahydropyrido[3,2-d]pyrimidin-2-yl)-N-(3-(3-(3-methyl-2,6-dioxopiperidin-3-yl)benzofuran-5-yl)prop-2-yn-1-yl)picolinamide]	< 20%	> 1000 nM
Cc1cc2c(N3CCOc4cc(-c5ccc(C(=O)NCC#Cc6ccc7occ(C8CCC(=O)NC8=O)c7c6)nc5)c(F)cc43)cc(C(C)C)cc2n(C)c1=O (centres unmarked) [Example B91, N-(3-(3-(2,6-dioxopiperidin-3-yl)benzofuran-5-yl)prop-2-yn-1-yl)-5-(6-fluoro-4-(7-isopropyl-1,3-dimethyl-2-oxo-1,2-dihydroquinolin-5-yl)-3,4-dihydro-2H-benzo[b][1,4]oxazin-7-yl)picolinamide]	> 80%	10 to 99 nM
CCc1cc2c(cc(C)c(=O)n2C)c(-c2cccc3cc(-c4ccc(C(=O)NCC#Cc5ccc6occ(C7CCC(=O)NC7=O)c6c5)nc4)ncc23)n1 (centres unmarked) [Example B93, N-(3-(3-(2,6-dioxopiperidin-3-yl)benzofuran-5-yl)prop-2-yn-1-yl)-5-(8-(7-ethyl-1,3-dimethyl-2-oxo-1,2-dihydro-1,6-naphthyridin-5-yl)isoquinolin-3-yl)picolinamide]	60 to 79%	1 to 9.9 nM
Cc1cc2c(N3CCCc4nc(-c5ccc(C(=O)NCC#Cc6cc7c(C89CC(C8)C(=O)NC9=O)cccc7o6)nc5)ncc43)cc(C3CCOCC3)cc2n(C)c1=O [Example B97, 5-(5-(1,3-dimethyl-2-oxo-7-(tetrahydro-2H-pyran-4-yl)-1,2-dihydroquinolin-5-yl)-5,6,7,8-tetrahydropyrido[3,2-d]pyrimidin-2-yl)-N-(3-(4-(2,4-dioxo-3-azabicyclo[3.1.1]heptan-1-yl)benzofuran-2-yl)prop-2-yn-1-yl)picolinamide]	< 20%	100 to 999 nM
Cc1cc2c(N3CCOc4cc(-c5ccc(C(=O)NCC#Cc6ccc7occ(C8CCC(=O)NC8=O)c7c6)nc5)c(F)cc43)cc(C3CCOCC3)cc2n(C)c1=O (centres unmarked) [Example B99, 5-(4-(1,3-dimethyl-2-oxo-7-(tetrahydro-2H-pyran-4-yl)-1,2-dihydroquinolin-5-yl)-6-fluoro-3,4-dihydro-2H-benzo[b][1,4]oxazin-7-yl)-N-(3-(3-(2,6-dioxopiperidin-3-yl)benzofuran-5-yl)prop-2-yn-1-yl)picolinamide]	> 80%	1 to 9.9 nM
Cc1cc2c(N3CCOc4cc(-c5ccc(C(=O)NCC#Cc6ccc7occ(C8CCC(=O)NC8=O)c7c6)nc5)c(F)cc43)cc(F)cc2n(C)c1=O (centres unmarked) [Example B100, N-(3-(3-(2,6-dioxopiperidin-3-yl)benzofuran-5-yl)prop-2-yn-1-yl)-5-(6-fluoro-4-(7-fluoro-1,3-dimethyl-2-oxo-1,2-dihydroquinolin-5-yl)-3,4-dihydro-2H-benzo[b][1,4]oxazin-7-yl) picolinamide]	> 80%	1 to 9.9 nM
Cc1cc2c(-c3cccc4cc(-c5ccc(C(=O)NCC#Cc6ccc7occ(C8CCC(=O)NC8=O)c7c6)nc5)ncc34)nc(N3CC(C)(O)C3)cc2n(C)c1=O (centres unmarked) [Example B101, N-(3-(3-(2,6-dioxopiperidin-3-yl)benzofuran-5-yl)prop-2-yn-1-yl)-5-(8-(7-(3-hydroxy-3-methylazetidin-1-yl)-1,3-dimethyl-2-oxo-1,2-dihydro-1,6-naphthyridin-5-yl)isoquinolin-3-yl)picolinamide]	> 80%	1 to 9.9 nM
Cn1c(=O)ccc2c(N3CCCc4nc(-c5ccc(C(=O)NCC#Cc6ccc7occ(C8CCC(=O)NC8=O)c7c6)nc5)ncc43)cc(C3CCOCC3)cc21 (centres unmarked) [Example B105, N-(3-(3-(2,6-dioxopiperidin-3-yl)benzofuran-5-yl)prop-2-yn-1-yl)-5-(5-(1-methyl-2-oxo-7-(tetrahydro-2H-pyran-4-yl)-1,2-dihydro-quinolin-5-yl)-5,6,7,8-tetrahydropyrido[3,2-d]pyrimidin-2-yl)picolinamide]	< 20%	> 1000 nM
Cc1cc2c(N3CCOc4cc(-c5ccc(C(=O)NCC#Cc6ccc7occ(C8CCC(=O)NC8=O)c7c6)nc5)ncc43)cc(C3CCOCC3)cc2n(C)c1=O (centres unmarked) [Example B109, 5-(4-(1,3-dimethyl-2-oxo-7-(tetrahydro-2H-pyran-4-yl)-1,2-dihydroquinolin-5-yl)-3,4-dihydro-2H-pyrido[4,3-b][1,4]oxazin-7-yl)-N-(3-(3-(2,6-dioxopiperidin-3-yl)benzofuran-5-yl)prop-2-yn-1-yl)picolinamide]	> 80%	< 1 nM
COC1CN(c2cc(N3CCOc4cc(-c5ccc(C(=O)NCC#Cc6ccc7occ(C8CCC(=O)NC8=O)c7c6)nc5)c(F)cc43)c3cc(C)c(=O)n(C)c3c2)C1 (centres unmarked) [Example B113, N-(3-(3-(2,6-dioxopiperidin-3-yl)benzofuran-5-yl)prop-2-yn-1-yl)-5-(6-fluoro-4-(7-(3-methoxyazetidin-1-yl)-1,3-dimethyl-2-oxo-1,2-dihydroquinolin-5-yl)-3,4-dihydro-2H-benzo[b][1,4]oxazin-7-yl)picolinamide]	> 80%	1 to 9.9 nM
Cc1cc2c(N3CCCc4nc(-c5ccc(C(=O)NCC=C=Cc6ccc7occ(C8CCC(=O)NC8=O)c7c6)nc5)ncc43)cc(C3CCOCC3)cc2n(C)c1=O (centres unmarked) [Example B116, 5-(5-(1,3-dimethyl-2-oxo-7-(tetrahydro-2H-pyran-4-yl)-1,2-dihydroquinolin-5-yl)-5,6,7,8-tetrahydropyrido[3,2-d]pyrimidin-2-yl)-N-(4-(3-(2,6-dioxopiperidin-3-yl)benzofuran-5-yl)buta-2,3-dien-1-yl)picolinamide]	40 to 59%	10 to 99 nM

Further lines, results first:

Dmax	DC50	SMILES
> 80%	1 to 9.9 nM	Cc1cc2c(N3CCCc4nc(-c5ccc(C(=O)NCC#Cc6ccc7occ(C8CCC(=O)NC8=O)c7c6)nc5)ncc43)nc(N3CCC3)cc2n(C)c1=O (centres unmarked) [Example B86, 5-(5-(7-(azetidin-1-yl)-1,3-dimethyl-2-oxo-1,2-dihydro-1,6-naphthyridin-5-yl)-5,6,7,8-tetrahydropyrido[3,2-d]pyrimidin-2-yl)-N-(3-(3-(2,6-dioxopiperidin-3-yl)benzofuran-5-yl)prop-2-yn-1-yl)picolinamide]
> 80%	1 to 9.9 nM	Cc1cc(-c2ncc3c(n2)CCCN3c2nc(N3CCOCC3)cc3c2cc(C)c(=O)n3C)cnc1C(=O)NCC#Cc1cc2c(C3CCC(=O)NC3=O)cccc2o1 (centres unmarked) [Example B89, 5-(5-(1,3-dimethyl-7-morpholino-2-oxo-1,2-dihydro-1,6-naphthyridin-5-yl)-5,6,7,8-tetrahydropyrido[3,2-d]pyrimidin-2-yl)-N-(3-(4-(2,6-dioxopiperidin-3-yl)benzofuran-2-yl)prop-2-yn-1-yl)-3-methylpicolinamide]
> 80%	< 1 nM	Cc1cc2c(N3CCN(C)c4cc(-c5ccc(C(=O)NCC#Cc6cc7c(C8CCC(=O)NC8=O)cccc7o6)nc5)ncc43)cc(C(C)C)cc2n(C)c1=O (centres unmarked) [Example B95, N-(3-(4-(2,6-dioxopiperidin-3-yl)benzofuran-2-yl)prop-2-yn-1-yl)-5-(4-(7-isopropyl-1,3-dimethyl-2-oxo-1,2-dihydroquinolin-5-yl)-1-methyl-1,2,3,4-tetrahydropyrido[3,4-b]pyrazin-7-yl)picolinamide]
> 80%	1 to 9.9 nM	Cc1cc(N2CCN(C)c3nc(-c4ccc(C(=O)NCC#Cc5cc6c(C7CCC(=O)NC7=O)cccc6o5)nc4)ncc32)c2cc(C)c(=O)n(C)c2c1 (centres unmarked) [Example B104, N-(3-(4-(2,6-dioxopiperidin-3-yl)benzofuran-2-yl)prop-2-yn-1-yl)-5-(8-methyl-5-(1,3,7-trimethyl-2-oxo-1,2-dihydroquinolin-5-yl)-5,6,7,8-tetrahydropteridin-2-yl)picolinamide]
> 80%	< 1 nM	Cc1cc2c(N3CCN(C)c4cc(-c5ccc(C(=O)NCC#Cc6cc7c(C8CCC(=O)NC8=O)cccc7o6)nc5)ncc43)cccc2n(C)c1=O (centres unmarked) [Example B114, 5-(4-(1,3-dimethyl-2-oxo-1,2-dihydroquinolin-5-yl)-1-methyl-1,2,3,4-tetrahydropyrido [3,4-b]pyrazin-7-yl)-N-(3-(4-(2,6-dioxo-piperidin-3-yl)benzofuran-2-yl)prop-2-yn-1-yl)picolinamide]
> 80%	1 to 9.9 nM	Cc1cc(N2CCCc3nc(-c4ccc(C(=O)NCC#Cc5cc6c(C7CCC(=O)NC7=O)cccc6o5)nc4)ncc32)c2cc(C)c(=O)n(C)c2n1 (centres unmarked) [Example B118, N-(3-(4-(2,6-dioxopiperidin-3-yl)benzofuran-2-yl)prop-2-yn-1-yl)-5-(5-(2,6,8-trimethyl-7-oxo-7,8-dihydro-1,8-naphthyridin-4-yl)-5,6,7,8-tetrahydropyrido[3,2-d]pyrimidin-2-yl) picolinamide]
